Source: ChEMBL document CHEMBL5543140 (J Med Chem, 2024)
Active and inactive are the calls of the source. No cut-off for these calls is given here.

Legend:
[1] = molecular target: 5-hydroxytryptamine receptor 2B (Homo sapiens, UniProt P41595); assay: Binding affinity to human [125I]LSD-labeled 5-HT2B receptor expressed in CHO cell membrane incubated for 60 mins; type: cell membranes
[2] = Renal clearance in Wistar rat plasma at 1 mg/kg, iv measured upto 48 hrs; type: ADME, organism-based
[3] = molecular target: T1, 5-hydroxytryptamine receptor 1A (Homo sapiens) (UniProt P08908); assay: Agonist activity at human 5-HT1A receptor expressed in HEK293T cells co-transfected with 22F-Glosensor assessed as inhibition of cAMP production measured after 30 mins incubation by Microbeta2Micro-plate counter analysis; type: functional, cell-based; conditions: filed as agonist
T1 sequence (whole entry): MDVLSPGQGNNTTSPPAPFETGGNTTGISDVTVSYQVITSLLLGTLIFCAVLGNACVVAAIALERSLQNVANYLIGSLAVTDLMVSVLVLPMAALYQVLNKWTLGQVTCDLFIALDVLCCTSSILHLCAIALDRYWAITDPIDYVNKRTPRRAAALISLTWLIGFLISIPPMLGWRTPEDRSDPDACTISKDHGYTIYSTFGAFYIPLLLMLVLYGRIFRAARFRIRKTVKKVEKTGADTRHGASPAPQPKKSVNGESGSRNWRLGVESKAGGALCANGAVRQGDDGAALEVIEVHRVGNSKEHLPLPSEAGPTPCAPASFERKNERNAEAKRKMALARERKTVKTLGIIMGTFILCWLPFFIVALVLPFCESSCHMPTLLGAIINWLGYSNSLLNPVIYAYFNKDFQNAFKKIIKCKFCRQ

[4] = Ex vivo binding in C57BL/6J mouse brain frontal cortex assessed as inhibition of [3H]Cimbi-36 binding at 1 mg/kg, sc measured after 40 mins by liquid scintillation counting analysis (reference value: 0%); type: functional
[5] = Metabolic stability in human liver S9 fractions assessed as half life; type: ADME, subcellular; conditions: liver S9 fraction
Mus musculus [6] = assay: Induction of neuroplasticity in C57BL/6J mouse assessed as increase in EGR2 mRNA expression in brain frontal cortex at 3 mg/kg, sc single dose by RT-PCR analysis; type: functional, organism-based
[7] = molecular target: T2, 5-hydroxytryptamine receptor 2C (Homo sapiens, UniProt P28335); assay: Agonist activity at human 5-HT2C receptor expressed in HEK293 cells assessed as IP2 production measured after 30 mins incubation by HTRF assay; type: functional, cell-based
T2 sequence (P28335 whole entry): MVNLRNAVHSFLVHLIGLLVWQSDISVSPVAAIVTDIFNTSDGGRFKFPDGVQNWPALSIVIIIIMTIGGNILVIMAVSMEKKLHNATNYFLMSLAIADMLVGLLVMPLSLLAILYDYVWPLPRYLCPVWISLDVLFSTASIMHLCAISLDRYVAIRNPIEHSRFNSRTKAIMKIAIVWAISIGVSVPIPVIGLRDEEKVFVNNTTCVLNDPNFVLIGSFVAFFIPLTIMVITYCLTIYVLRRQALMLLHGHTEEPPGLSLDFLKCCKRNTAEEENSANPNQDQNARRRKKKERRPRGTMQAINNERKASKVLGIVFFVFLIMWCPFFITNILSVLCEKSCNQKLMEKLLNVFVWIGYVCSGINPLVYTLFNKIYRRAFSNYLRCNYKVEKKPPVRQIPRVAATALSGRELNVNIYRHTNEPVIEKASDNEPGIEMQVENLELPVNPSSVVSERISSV

[8] = Half life in male Sprague-Dawley rat brain at 1 mg/kg, iv measured upto 8 hrs by LC-MS/MS analysis; type: ADME, organism-based
Hippocampus [9] = assay: Induction of neuroplasticity in C57BL/6J mouse assessed as increase in Homer1 mRNA expression in brain hippocampus at 0.3 mg/kg, sc single dose by RT-PCR analysis; type: functional, organism-based
[10] = AUCinf in beagle dog at 0.4 mg/kg, iv measured upto 24 hrs; type: ADME, organism-based, Canis lupus familiaris; conditions: in vivo
[11] = Ex vivo binding in C57BL/6J mouse brain frontal cortex assessed as inhibition of [3H]Cimbi-36 binding at 1 mg/kg, sc measured after 5 mins by liquid scintillation counting analysis (reference value: 0%); type: functional
Mus musculus [12] = assay: Induction of neuroplasticity in C57BL/6J mouse assessed as increase in c-Fos mRNA expression in brain frontal cortex at 3 mg/kg, sc single dose by RT-PCR analysis; type: functional, organism-based
Hippocampus [13] = assay: Induction of neuroplasticity in C57BL/6J mouse assessed as increase in BDNF mRNA expression in brain hippocampus at 0.3 mg/kg, sc single dose by RT-PCR analysis; type: functional, organism-based
[14] = AUCinf in Wistar rat brain at 1 mg/kg, iv measured upto 48 hrs; type: ADME, organism-based
[15] = Tmax in Wistar rat brain at 5 mg/kg, po measured upto 48 hrs; type: ADME, organism-based
[16] = Metabolic stability in rat hepatocytes assessed as half life at 10 uM; type: ADME, cell-based, Hepatocyte
[17] = Initial plasma concentration in beagle dog at 0.4 mg/kg, iv measured upto 24 hrs; type: ADME, organism-based, Canis lupus familiaris
[18] = Half life in Wistar rat brain at 5 mg/kg, po measured upto 48 hrs; type: ADME, organism-based
[19] = Metabolic stability in rat liver S9 fractions assessed as half life; type: ADME, subcellular; conditions: liver S9 fraction
[20] = Tmax in Wistar rat plasma at 1 mg/kg, iv measured upto 48 hrs; type: ADME, organism-based
Hippocampus [21] = assay: Induction of neuroplasticity in C57BL/6J mouse assessed as increase in EGR2 mRNA expression in brain hippocampus at 3 mg/kg, sc single dose by RT-PCR analysis; type: functional, organism-based
[22] = molecular target: 5-hydroxytryptamine receptor 1B (Homo sapiens, UniProt P28222); assay: Displacement of [3H]GR125743 from 5-HT1B receptor (unknown origin) assessed as inhibition binding at 10 uM relative to control
[23] = Tmax in Wistar rat brain at 1 mg/kg, iv measured upto 48 hrs; type: ADME, organism-based
[24] = AUClast in Wistar rat plasma at 5 mg/kg, po measured upto 48 hrs; type: ADME, organism-based
[25] = Ex vivo binding in C57BL/6J mouse brain frontal cortex assessed as inhibition of [3H]Cimbi-36 binding at 1 mg/kg, sc measured after 360 mins by liquid scintillation counting analysis (reference value: 0%); type: functional; conditions: 6 h
[26] = molecular target: Muscarinic acetylcholine receptor M5 (Homo sapiens) (UniProt P08912); assay: Displacement of [3H]4-DAMP from human recombinant muscarinic M5 receptor expressed in HEK293 cells at 10 uM incubated for 60 mins by radiometric based scintillation counter assay relative to control; type: cell-based
[27] = CSF to plasma ratio in male Sprague-Dawley rat at 1 mg/kg, iv measured upto 8 hrs by LC-MS/MS analysis; type: ADME, organism-based; conditions: CSF and plasma
[28] = molecular target: 5-hydroxytryptamine receptor 2A (Homo sapiens, UniProt P28223); assay: Agonist activity at human 5-HT2A receptor expressed in HEK293 cells assessed as IP2 production measured after 30 mins incubation by HTRF assay; type: functional, cell-based; conditions: read-out: EC50
[29] = Drug metabolism in rat hepatocytes assessed as formation of sulfoxide metabolites at 10 uM by HRAMS analysis; type: ADME, cell-based, Hepatocyte
[30] = molecular target: 5-hydroxytryptamine receptor 6 (Homo sapiens, UniProt P50406); assay: Displacement of [3H]LSD from 5-HT6 receptor (unknown origin) assessed as inhibition binding at 10 uM relative to control
5-hydroxytryptamine receptor 6, sequence (P50406 whole entry): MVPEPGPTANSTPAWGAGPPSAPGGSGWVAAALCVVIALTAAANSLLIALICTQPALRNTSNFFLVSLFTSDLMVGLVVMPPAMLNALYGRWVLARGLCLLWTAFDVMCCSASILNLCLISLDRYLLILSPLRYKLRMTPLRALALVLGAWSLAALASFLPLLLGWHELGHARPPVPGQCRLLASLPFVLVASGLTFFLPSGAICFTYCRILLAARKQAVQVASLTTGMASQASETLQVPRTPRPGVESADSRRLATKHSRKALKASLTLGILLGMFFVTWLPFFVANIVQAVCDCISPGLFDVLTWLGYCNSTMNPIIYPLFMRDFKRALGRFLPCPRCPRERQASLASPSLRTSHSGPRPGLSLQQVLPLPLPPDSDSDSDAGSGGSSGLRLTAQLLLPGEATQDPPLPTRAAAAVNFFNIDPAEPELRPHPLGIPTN

Muscarinic acetylcholine receptor M5 (Homo sapiens), sequence (P08912 whole entry): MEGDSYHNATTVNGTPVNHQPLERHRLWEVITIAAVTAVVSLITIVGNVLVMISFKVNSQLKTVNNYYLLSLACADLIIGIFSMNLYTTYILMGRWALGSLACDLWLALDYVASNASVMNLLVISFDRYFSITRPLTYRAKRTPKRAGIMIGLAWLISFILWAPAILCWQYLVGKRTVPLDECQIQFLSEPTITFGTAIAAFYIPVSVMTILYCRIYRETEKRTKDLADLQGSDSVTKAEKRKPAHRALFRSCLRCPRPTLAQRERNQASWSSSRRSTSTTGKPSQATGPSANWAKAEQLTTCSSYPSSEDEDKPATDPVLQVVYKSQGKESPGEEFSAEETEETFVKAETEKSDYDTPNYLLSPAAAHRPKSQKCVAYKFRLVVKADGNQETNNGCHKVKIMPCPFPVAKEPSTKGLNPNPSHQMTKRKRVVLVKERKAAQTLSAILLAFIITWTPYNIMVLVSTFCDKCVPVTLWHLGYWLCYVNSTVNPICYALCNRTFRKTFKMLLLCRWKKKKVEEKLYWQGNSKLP
5-hydroxytryptamine receptor 2B, sequence (P41595 whole entry): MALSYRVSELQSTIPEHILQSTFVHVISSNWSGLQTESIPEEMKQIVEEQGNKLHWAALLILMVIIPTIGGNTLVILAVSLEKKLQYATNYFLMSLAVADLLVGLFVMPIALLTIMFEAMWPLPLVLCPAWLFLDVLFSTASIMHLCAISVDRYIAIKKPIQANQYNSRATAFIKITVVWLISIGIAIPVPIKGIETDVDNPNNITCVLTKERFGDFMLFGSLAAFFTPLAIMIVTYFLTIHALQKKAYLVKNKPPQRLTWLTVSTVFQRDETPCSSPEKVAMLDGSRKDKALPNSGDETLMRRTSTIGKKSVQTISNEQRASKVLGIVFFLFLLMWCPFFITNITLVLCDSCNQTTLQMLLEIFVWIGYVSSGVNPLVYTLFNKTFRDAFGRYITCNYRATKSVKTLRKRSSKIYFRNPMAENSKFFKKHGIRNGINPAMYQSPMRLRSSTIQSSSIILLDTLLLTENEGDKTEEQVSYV
5-hydroxytryptamine receptor 2A, sequence (P28223 whole entry): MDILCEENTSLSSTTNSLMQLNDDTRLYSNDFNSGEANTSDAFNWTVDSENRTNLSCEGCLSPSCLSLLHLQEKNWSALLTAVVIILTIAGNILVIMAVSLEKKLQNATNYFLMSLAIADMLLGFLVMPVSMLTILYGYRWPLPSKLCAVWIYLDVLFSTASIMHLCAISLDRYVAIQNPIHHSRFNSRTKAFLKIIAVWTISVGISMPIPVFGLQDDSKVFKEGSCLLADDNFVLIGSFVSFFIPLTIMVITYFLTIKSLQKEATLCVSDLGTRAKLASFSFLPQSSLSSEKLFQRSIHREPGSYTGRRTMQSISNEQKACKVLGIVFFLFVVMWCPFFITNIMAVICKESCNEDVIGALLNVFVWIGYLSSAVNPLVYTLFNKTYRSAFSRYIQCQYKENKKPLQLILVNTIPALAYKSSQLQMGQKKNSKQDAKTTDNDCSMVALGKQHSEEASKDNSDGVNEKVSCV
5-hydroxytryptamine receptor 1B, sequence (P28222 whole entry): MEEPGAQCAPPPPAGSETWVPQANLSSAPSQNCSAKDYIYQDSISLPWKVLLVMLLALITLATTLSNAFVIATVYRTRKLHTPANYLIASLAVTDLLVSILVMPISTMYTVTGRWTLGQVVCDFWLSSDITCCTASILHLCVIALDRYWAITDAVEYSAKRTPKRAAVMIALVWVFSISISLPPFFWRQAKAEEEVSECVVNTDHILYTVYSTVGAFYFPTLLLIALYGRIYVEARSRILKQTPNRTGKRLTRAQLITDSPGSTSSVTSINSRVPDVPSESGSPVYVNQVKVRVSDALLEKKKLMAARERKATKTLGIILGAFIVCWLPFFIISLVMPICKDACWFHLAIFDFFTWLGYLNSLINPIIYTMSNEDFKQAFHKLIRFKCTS

`COc1cc([Se]C(F)(F)F)c(OC)cc1CCN.Cl` showed a Ki [1] of 10 nM, a CL renal at 48 h [2] of 1.13 mL/min/kg and an Emax [3] of 95%. The inhibition in vivo at 1 mg/kg [4] was 33%, the half-life [5] was over 2 h and the Activity (Mus musculus [6]) was “Active”. The EC50 [7] was 92 nM, the half-life [8] was 1.34 h and the Activity (Hippocampus [9]) was “inactive”. For the same compound, the AUC(0-inf) [10] was 446 ng·h/mL, the inhibition in vivo at 1 mg/kg [11] was 13% and the Activity (Mus musculus [12]) was “Active”. The Activity (Hippocampus [13]) was “inactive”, the AUC(0-inf) [14] was 3260 ng·h/mL and the Tmax [15] was 2 h. For the same compound, the half-life at 10 µM [16] was 16 h, the C0 at 24 h [17] was 121 ng/mL and the half-life [18] was 4.71 h. For the same compound, the half-life [19] was 1.27 h, the Tmax [20] was 4.98 min and the Activity (Hippocampus [21]) was “inactive”. For the same compound, the inhibition [22] was 83%, the Tmax [23] was 0.5 h and the AUC(0-t) at 48 h [24] was 40.3 ng·h/mL. For the same compound, the inhibition in vivo at 1 mg/kg [25] was 25%, the inhibition [26] was 83% and the Kp at 8 h [27] was 0.2. For the same compound, the EC50 [28] was 3.6 nM, the Drug metabolism [29] was “Metabolite_Detected” and the inhibition [30] was 90%.
